Measured values: patent publication US9649313B2, “Use of ITK inhibitors for the treatment of cancer” (The University of North Carolina at Chapel Hill, priority 2012, dated 2017)

Tests used:
[1] = target: T1, CaMK4 (Homo sapiens, UniProt Q16566); assay: cell-free kinase assay; format: biochemical; details: single inhibitor concentration
T1 construct: purchased Carna Biosciences
From the text: (§1) We investigated the potency and selectivity of BI 10N against 56 kinases using a cell-free assay (Table 8A).
(§2) The selectivity of this inhibitor was investigated by testing the potency of the inhibitor at two concentrations with 53 kinases by Carna Biosciences (MA) (Table 2).

[2] = target: T2, EGFR (Homo sapiens, UniProt P00533); assay: cell-free kinase assay; format: biochemical; details: single inhibitor concentration
T2 construct: purchased Carna Biosciences
From the text: as §1, §2

[3] = target: T3, EPHA2 (Homo sapiens, UniProt P29317); assay: cell-free kinase assay; format: biochemical; details: single inhibitor concentration
T3 construct: purchased Carna Biosciences
From the text: as §1, §2

[4] = target: T4, EPHB4 (Homo sapiens, UniProt P54760); assay: cell-free kinase assay; format: biochemical; details: single inhibitor concentration
T4 construct: purchased Carna Biosciences
From the text: as §1, §2

[5] = target: T5, Erk2 (Homo sapiens, UniProt P28482); assay: cell-free kinase assay; format: biochemical; details: single inhibitor concentration
T5 construct: purchased Carna Biosciences
From the text: as §1, §2

[6] = target: T6, FGR (Homo sapiens, UniProt P09769); assay: cell-free kinase assay; format: biochemical; details: ATP concentration at approximately the Km for ATP
T6 construct: purchased Carna Biosciences
From the text: as §1, §2

[7] = target: T7, IRAK4 (Homo sapiens, UniProt Q9NWZ3); assay: cell-free kinase assay; format: biochemical
T7 construct: purchased Carna Biosciences
From the text: as §1, §2

[8] = target: T8, LYNb (Homo sapiens, UniProt P07948); assay: cell-free kinase assay; format: biochemical; details: ATP concentration at approximately the Km for ATP
T8 construct: purchased Carna Biosciences
From the text: as §1, §2

[9] = target: T9, MAPKAPK2 (Homo sapiens, UniProt P49137); assay: cell-free kinase assay; format: biochemical; details: single inhibitor concentration
T9 construct: purchased Carna Biosciences
From the text: as §1, §2

[10] = target: T10, MET (Homo sapiens, UniProt P08581); assay: cell-free kinase assay; format: biochemical; details: single inhibitor concentration
T10 construct: purchased Carna Biosciences
From the text: as §1, §2

[11] = target: T11, MST1 (Homo sapiens, UniProt Q13043); assay: cell-free kinase assay; format: biochemical
T11 construct: purchased Carna Biosciences
T11 sequence (Q13043 1-487): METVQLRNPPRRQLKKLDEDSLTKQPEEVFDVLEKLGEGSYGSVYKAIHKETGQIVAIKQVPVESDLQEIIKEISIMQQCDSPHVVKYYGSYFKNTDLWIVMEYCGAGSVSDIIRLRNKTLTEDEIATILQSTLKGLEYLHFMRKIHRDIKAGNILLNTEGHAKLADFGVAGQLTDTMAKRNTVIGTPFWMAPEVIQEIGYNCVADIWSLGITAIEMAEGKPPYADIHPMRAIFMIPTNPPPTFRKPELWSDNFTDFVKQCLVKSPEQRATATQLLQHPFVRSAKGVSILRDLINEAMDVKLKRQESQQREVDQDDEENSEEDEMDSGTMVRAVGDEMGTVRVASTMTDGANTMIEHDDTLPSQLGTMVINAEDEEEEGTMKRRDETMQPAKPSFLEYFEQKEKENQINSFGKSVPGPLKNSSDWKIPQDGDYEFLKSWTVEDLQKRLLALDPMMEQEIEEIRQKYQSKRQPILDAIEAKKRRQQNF
From the text: as §1, §2

[12] = target: T12, NEK2 (Homo sapiens, UniProt P51955); assay: cell-free kinase assay; format: biochemical; details: single inhibitor concentration
T12 construct: purchased Carna Biosciences
From the text: as §1, §2

[13] = target: T13, PAK2 (Homo sapiens, UniProt Q13177); assay: cell-free kinase assay; format: biochemical; details: single inhibitor concentration
T13 construct: purchased Carna Biosciences
From the text: as §1, §2

[14] = target: T14, PBK (Homo sapiens, UniProt Q96KB5); assay: cell-free kinase assay; format: biochemical; details: single inhibitor concentration
T14 construct: purchased Carna Biosciences
From the text: as §1, §2

[15] = target: T15, PDGFRα (Homo sapiens, UniProt P16234); assay: cell-free kinase assay; format: biochemical
T15 construct: purchased Carna Biosciences
From the text: as §1, §2

[16] = target: T16, PDK1 (Homo sapiens, UniProt O15530); assay: cell-free kinase assay; format: biochemical; details: single inhibitor concentration
T16 construct: purchased Carna Biosciences
From the text: as §1, §2

[17] = target: T17, PKACα (Homo sapiens, UniProt P17612); assay: cell-free kinase assay; format: biochemical; details: single inhibitor concentration
T17 construct: purchased Carna Biosciences
From the text: as §1, §2

[18] = target: T18, PYK2 (Homo sapiens, UniProt Q14289); assay: cell-free kinase assay; format: biochemical; details: single inhibitor concentration
T18 construct: purchased Carna Biosciences
From the text: as §1, §2

[19] = target: T19, SGK (Homo sapiens, UniProt O00141); assay: cell-free kinase assay; format: biochemical; details: single inhibitor concentration
T19 construct: purchased Carna Biosciences
From the text: as §1, §2

[20] = target: T20, SYK (Homo sapiens, UniProt P43405); assay: cell-free kinase assay; format: biochemical; details: single inhibitor concentration
T20 construct: purchased Carna Biosciences
From the text: as §1, §2

[21] = target: T21, TIE2 (Homo sapiens, UniProt Q02763); assay: cell-free kinase assay; format: biochemical; details: single inhibitor concentration
T21 construct: purchased Carna Biosciences
From the text: as §1, §2

[22] = tested on: primary melanoma in the PTEN/BRAF GEMM; assay: PTEN/BRAF GEMM primary melanoma model; format: in vivo, mice
From the text: FIG. 7A-7B Effects of BI 10N inhibitor on growth of primary melanoma in the PTEN/BRAF GEMM. A primary melanoma tumor from the PTEN/BRAF mouse GEMM untreated with inhibitors stained with acid fast red for ITK using ITK antibody (Abeam cat#ab32113) (data not shown). A PTEN/BRAF mouse model was used for these in vivo studies. The mice were painted with 4HT (4-hydroxy-tamoxifen) at the base of their tails and within about 4 weeks, 4 mm×4 mm melanomas were typically present in each mouse. The animals were then divided into treatment or no treatment groups. FIG. 7A) Animals were treated as described in panel B, then placed on BI 10N BI 10N at 15 MPK or not treated. Mice were followed for 7 weeks and their tumors were measured once a week to assess tumor volume as described in the Materials and Methods. FIG. 7B) Effect of BI 10N on tumor growth (mean and standard error of mean) in the PTEN/BRAF GEMM. […] The effects of AZD6244 and PLX4032 on tumor growth are also shown. Samples sizes are indicated in parentheses.
All animal studies were approved by UNC-CH Institute for Animal Care and Use Committee prior to study start. PTEN/BRAF mice were bred in house, and tumors were induced with 1 ul of 20 mM Tamoxafen at 4 weeks near the base of the tail as previously described (Dankort et al., 2009 Nat Genet 41(5): 544-52). […]

[23] = Riether et al., 2009; cited from earlier work
[24] = tested on: cytokine production; details: anti-CD3 antibody stimulated Balb/c mice; Riether et al., 2009; cited from earlier work

T15 sequence (P16234 24-1089): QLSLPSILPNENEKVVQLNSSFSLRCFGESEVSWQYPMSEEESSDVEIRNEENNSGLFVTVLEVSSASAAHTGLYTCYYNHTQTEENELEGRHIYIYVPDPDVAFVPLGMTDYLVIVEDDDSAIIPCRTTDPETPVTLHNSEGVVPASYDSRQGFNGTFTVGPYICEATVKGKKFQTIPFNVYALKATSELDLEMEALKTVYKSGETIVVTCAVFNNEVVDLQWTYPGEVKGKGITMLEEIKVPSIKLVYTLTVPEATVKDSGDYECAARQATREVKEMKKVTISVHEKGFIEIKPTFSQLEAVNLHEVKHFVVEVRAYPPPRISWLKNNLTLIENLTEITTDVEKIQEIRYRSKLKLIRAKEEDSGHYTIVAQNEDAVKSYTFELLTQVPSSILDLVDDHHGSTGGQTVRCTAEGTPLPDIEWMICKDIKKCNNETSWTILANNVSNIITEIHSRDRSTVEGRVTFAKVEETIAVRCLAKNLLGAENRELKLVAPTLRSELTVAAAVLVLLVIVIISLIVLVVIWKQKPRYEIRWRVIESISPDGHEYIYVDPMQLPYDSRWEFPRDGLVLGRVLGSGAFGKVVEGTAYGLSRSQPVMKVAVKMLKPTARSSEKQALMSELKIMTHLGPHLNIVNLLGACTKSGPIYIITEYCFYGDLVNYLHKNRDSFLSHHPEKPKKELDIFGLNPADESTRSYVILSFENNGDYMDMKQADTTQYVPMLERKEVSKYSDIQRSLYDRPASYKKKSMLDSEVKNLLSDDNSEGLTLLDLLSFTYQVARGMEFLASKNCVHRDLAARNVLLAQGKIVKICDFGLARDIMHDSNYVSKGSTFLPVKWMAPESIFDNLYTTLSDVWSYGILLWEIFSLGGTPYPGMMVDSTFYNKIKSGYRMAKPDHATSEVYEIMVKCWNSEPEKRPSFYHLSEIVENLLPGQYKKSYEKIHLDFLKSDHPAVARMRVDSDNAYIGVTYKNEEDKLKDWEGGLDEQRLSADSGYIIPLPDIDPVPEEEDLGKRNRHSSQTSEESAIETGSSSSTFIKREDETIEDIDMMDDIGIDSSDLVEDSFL
T7 sequence (Q9NWZ3 whole entry): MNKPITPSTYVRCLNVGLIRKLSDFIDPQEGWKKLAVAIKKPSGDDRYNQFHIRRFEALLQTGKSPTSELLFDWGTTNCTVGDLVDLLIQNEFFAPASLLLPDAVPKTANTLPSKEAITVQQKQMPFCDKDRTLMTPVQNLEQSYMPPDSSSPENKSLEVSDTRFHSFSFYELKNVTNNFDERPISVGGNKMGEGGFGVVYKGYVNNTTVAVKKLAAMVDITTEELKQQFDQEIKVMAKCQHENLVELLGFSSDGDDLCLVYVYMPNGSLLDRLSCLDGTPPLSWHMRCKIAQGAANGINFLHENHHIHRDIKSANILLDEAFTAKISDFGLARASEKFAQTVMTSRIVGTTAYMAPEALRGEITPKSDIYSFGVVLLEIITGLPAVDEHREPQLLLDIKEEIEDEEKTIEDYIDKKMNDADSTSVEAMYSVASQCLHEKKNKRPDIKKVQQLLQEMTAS
T10 sequence (P08581 25-1390): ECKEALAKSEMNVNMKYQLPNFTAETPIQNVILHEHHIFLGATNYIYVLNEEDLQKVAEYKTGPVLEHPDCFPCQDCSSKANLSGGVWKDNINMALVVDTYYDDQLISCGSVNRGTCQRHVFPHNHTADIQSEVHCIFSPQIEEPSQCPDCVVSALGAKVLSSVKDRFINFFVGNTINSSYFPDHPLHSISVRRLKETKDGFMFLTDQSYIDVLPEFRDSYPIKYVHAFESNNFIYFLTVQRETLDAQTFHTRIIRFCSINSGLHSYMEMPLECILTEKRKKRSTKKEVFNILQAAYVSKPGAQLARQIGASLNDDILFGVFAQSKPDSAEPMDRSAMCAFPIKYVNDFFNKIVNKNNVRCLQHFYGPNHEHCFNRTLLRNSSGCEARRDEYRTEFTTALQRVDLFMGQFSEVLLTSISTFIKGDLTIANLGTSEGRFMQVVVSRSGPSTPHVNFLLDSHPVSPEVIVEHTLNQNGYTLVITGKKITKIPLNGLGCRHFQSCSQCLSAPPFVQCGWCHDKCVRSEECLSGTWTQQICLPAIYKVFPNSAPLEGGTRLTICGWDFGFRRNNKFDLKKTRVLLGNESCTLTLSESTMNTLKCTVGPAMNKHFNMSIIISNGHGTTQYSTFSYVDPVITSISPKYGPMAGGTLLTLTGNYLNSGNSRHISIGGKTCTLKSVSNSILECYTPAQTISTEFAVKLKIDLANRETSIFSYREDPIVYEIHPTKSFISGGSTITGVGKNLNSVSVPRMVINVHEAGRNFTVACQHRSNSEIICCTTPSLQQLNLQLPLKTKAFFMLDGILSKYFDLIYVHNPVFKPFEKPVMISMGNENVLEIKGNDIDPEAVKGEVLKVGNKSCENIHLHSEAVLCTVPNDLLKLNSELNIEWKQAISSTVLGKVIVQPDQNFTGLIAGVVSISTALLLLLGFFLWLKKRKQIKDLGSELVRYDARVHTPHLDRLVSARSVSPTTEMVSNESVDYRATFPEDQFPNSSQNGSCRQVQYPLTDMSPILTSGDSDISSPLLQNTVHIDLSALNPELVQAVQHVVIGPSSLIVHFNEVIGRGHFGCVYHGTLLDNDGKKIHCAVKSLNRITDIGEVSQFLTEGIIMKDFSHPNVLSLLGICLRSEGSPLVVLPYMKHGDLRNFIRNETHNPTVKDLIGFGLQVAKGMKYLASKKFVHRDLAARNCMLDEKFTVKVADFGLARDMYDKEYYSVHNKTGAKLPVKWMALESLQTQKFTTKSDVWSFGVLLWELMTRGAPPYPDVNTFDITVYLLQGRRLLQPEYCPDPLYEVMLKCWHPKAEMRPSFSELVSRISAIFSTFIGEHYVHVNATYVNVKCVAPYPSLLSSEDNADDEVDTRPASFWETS
T13 sequence (Q13177 whole entry): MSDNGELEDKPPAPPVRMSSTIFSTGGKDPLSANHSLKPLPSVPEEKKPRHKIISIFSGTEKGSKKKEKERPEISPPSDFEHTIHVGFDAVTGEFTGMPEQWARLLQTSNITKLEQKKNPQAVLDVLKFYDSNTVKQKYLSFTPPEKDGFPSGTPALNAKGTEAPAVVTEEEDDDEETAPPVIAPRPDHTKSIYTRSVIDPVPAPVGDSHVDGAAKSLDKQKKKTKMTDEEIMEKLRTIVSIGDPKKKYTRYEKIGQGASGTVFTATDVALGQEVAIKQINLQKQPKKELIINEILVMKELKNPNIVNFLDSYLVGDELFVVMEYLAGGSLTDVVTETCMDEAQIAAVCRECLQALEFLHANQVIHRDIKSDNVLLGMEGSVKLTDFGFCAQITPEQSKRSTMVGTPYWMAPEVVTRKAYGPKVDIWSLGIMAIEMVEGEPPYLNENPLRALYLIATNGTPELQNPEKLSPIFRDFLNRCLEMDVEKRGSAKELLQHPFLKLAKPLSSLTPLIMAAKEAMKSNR
T8 sequence (P07948 1-491 isoform P07948-2): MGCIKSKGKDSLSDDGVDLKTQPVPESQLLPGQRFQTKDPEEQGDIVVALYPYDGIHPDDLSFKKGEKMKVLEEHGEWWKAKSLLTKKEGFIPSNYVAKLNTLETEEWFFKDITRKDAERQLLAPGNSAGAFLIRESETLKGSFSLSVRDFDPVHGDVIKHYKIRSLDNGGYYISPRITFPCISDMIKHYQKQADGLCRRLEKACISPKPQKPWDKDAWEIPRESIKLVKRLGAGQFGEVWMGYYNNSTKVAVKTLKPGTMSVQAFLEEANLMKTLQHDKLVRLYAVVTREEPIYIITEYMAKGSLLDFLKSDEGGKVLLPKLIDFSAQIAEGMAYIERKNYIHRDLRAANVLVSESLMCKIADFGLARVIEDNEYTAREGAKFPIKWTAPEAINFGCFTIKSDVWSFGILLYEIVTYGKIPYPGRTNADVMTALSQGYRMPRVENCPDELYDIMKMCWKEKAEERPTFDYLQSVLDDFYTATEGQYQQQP
T18 sequence (Q14289 whole entry): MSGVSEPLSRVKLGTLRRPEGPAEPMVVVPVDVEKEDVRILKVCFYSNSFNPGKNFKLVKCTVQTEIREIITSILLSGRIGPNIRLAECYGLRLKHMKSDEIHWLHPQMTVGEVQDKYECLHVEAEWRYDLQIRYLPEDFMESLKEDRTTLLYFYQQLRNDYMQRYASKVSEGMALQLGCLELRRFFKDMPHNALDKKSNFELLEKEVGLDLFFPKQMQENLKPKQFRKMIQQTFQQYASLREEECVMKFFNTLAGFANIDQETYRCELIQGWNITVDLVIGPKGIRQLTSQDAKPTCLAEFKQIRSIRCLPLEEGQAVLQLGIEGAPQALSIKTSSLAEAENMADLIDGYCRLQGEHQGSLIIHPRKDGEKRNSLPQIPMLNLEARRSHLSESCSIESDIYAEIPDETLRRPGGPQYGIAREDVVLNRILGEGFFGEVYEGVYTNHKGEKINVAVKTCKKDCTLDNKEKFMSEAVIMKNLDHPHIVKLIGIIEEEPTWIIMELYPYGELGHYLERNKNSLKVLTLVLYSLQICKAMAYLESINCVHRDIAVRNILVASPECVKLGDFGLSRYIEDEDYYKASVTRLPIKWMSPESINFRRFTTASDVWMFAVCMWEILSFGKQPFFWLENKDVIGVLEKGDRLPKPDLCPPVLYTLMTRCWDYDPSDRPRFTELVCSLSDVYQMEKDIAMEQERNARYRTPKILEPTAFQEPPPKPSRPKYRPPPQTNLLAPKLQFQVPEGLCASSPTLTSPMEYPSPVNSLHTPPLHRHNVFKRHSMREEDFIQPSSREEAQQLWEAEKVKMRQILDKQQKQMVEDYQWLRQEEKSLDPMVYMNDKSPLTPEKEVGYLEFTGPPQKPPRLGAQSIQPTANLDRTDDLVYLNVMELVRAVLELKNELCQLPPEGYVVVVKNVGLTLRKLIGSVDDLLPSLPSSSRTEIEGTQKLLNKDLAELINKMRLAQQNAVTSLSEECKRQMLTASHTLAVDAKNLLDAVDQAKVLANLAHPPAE

SMILES: CC(C)C(C)CNCc1ccc2c(c1)[nH]/c(=N\C(=O)c1ccc(C3=CN=NC3)s1)n2CC(C)(C)O (stereo not shown) [BI 10N]
- inhibition at 0.2 µM [1]: -4.3%
- inhibition at 0.2 µM [2]: 8.6%
- inhibition at 0.2 µM [3]: 7.8%
- inhibition at 0.2 µM [4]: 52.1%
- inhibition at 0.2 µM [5]: -1.5%
- IC50 [6]: 2.89 nM
- IC50 ([7]; Table 2, by Carna Biosciences): 3.14 nM
- inhibition at 0.2 µM ([7]; single inhibitor concentration): 105%
- IC50 [8]: 43 nM
- inhibition at 0.2 µM [9]: -5.2%
- inhibition at 0.2 µM [10]: 4.1%
- IC50 ([11]; Table 2, by Carna Biosciences): 26 nM
- inhibition at 0.2 µM ([11]; single inhibitor concentration): 91.7%
- inhibition at 0.2 µM [12]: 0.3%
- inhibition at 0.2 µM [13]: 4.5%
- inhibition at 0.2 µM [14]: 1.7%
- IC50 ([15]; Table 2, by Carna Biosciences): 10.1 nM
- inhibition at 0.2 µM ([15]; single inhibitor concentration): 101%
- inhibition at 0.2 µM [16]: 1.5%
- inhibition at 0.2 µM [17]: 2.5%
- inhibition at 0.2 µM [18]: 35.1%
- inhibition at 0.2 µM [19]: 1.4%
- inhibition at 0.2 µM [20]: 40.6%
- inhibition at 0.2 µM [21]: 8.2%
- tumor growth compared with AZD6244 and PLX4032 ([22]; PTEN/BRAF GEMM, FIG. 7B): performs better in vivo than MEK inhibitor AZD6244 (selumentinib) and V600E BRAF inhibitor PLX4032 (vemurafenib)
- progression of tumors ([22]; PTEN/BRAF mice, 15 mg per kg, compared to the no treatment group): profoundly retarded the progression of tumors
- F value (bioavailable in mice) [23]: 21%
- cytokine production in vivo [24]: decrease cytokine production
